# Experiments:
# fibronectin = fibronectin protein level by Western blotting in TGF-β1-treated fibroblasts; format: cell-based; settings: MRC5 cells, 5, 10, or 20 μM, TGF-β1 (10 ng/mL), 70 hours
# Source text: (§1) α-SMA protein is a marker of activated myofibroblasts, which are the main effector cells of fibrosis, myofibroblasts with increased α-SMA expression are known to produce a fibrotic protein such as collagen type 1 and cause fibrosis. Therefore, in this example, it was confirmed whether the compound according to the present invention is effective in inhibiting fibrosis by reducing the expression of α-SMA and other pro-fibrotic factors (COL1A1, COL4A1, fibronectin, and p-SMAD2).
# (§2) Specifically, lung tissue-derived fibroblasts, MRC5 cells, were treated with Compound 59 according to the present invention (5, 10, or 20 μM), nintedanib (1 μM), or DMSO, and then 2 hours later, treated with TGF-β1 (10 ng/mL). After 70 hours, the cells were lysed in RIPA buffer (50 mM Tris-HCl, 150 mM NaCl, 1% NP-40, 0.5% sodium deoxycholate, 0.1% SDS, protease inhibitor & phosphatase inhibitor cocktail, pH 8.0), which had been cooled to 4° C. The cell lysate was centrifuged at 4° C. at a speed of 15,000×g for 30 minutes, and then the supernatant was collected. After matching the total amount of proteins in the supernatant of each sample (15 to 30 μg), the proteins were separated according to molecular weight using SDS polyacrylamide gel electrophoresis (SDS-PAGE). […]
# p-SMAD2 = experiment: phosphorylation of SMAD2 by Western blotting in TGF-β1-treated fibroblasts; format: cell-based; settings: TGF-β1 (10 ng/mL), 70 hours
# Source text: as §1, §2
# COL1A1 = COL1A1 protein level by Western blotting in TGF-β1-treated fibroblasts; format: cell-based; settings: MRC5 cells, 5, 10, or 20 μM, TGF-β1 (10 ng/mL), 70 hours
# Source text: as §1, §2
# COL4A1 = COL4A1 protein level by Western blotting in TGF-β1-treated fibroblasts; format: cell-based; settings: MRC5 cells, 5, 10, or 20 μM, TGF-β1 (10 ng/mL), 70 hours
# Source text: as §1, §2
# MCR5 cell line = experiment: intracellular F-actin polymerization, TGF-β1-treated cells, confocal microscope; format: cell-based; settings: 10 μM along with TGF-β1 (10 ng/mL), 48 hours (FIGS. 2A and 2B)
# Source text: F-actin polymerization activates transcription factors involved in the activation of myofibroblasts and the initiation of fibrosis. Accordingly, when F-actin polymerization decreases, the expression of fibrosis-causing genes by the transcription factors may be inhibited, and the activation and fibrosis of muscle fiber cells may be reduced. Therefore, in this example, it was confirmed whether the compounds according to the present invention are effective in inhibiting F-actin polymerization.
# An MCR5 cell line was dispensed at 1×10^3 cells/well in a 96-well black micro plate and cultured in Medium 1 (10% FBS-containing MEM) in 5% CO2 at 37° C. for 24 hours. Subsequently, the above medium was exchanged with Medium 2 (0.5% FBS-containing MEM), a compound of the present invention was treated at 10 μM along with TGF-β1 (10 ng/mL), and the cells were incubated for 48 hours. After removing the entire batch, the cells were treated with each of CellMask Orange Actin Tracking Stain (Invitrogen) and NucBlue Live ReadyProbes (Invitrogen) to performing F-actin and cell nucleus staining in accordance with the manufacturer's recommended conditions. Cells treated with the staining reagents were incubated for 30 minutes at 5% CO2 and 37° C. while blocking light. After completing the incubation, the staining reagents were removed, fresh Medium 1 was added to the cells at 100 μL/well, and then the cells were incubated for 5 minutes, followed by removal of the medium. The above process was repeated three times. To observe the stained F-actin and cell nucleus, PBS was added to the plate at 100 μL/well, and then the cells were photographed using a confocal microscope (Leica) and analyzed using Image J software.
# Arp2/3 complex = experiment: in vitro actin polymerization test (pyrene-labeled actin); format: biochemical; settings: 10 μM, VCA domain protein, spherical actin monomers, 1 hour, compared to control (FIG. 1)
# Method: Although actin polymerization, which is a process of forming actin filaments from actin monomers, is involved in controlling cell movement, tissue fibrosis may be caused by the promotion of excessive α-SMA expression and induction of myofibroblast activation. Accordingly, an in vitro actin polymerization test was performed to confirm the actin polymerization controlling function of the compounds according to the present invention.
# Specifically, a pyrene-labeled spherical actin stock was diluted with general actin buffer (5 mM Tris-HCl pH 8.0, 0.2 mM CaCl2)) and incubated at 4° C. for 1 hour, thereby producing spherical actin monomers. Afterward, 80% of a supernatant was recovered by centrifugation at 20,000×g and 4° C. for 3 hours, and 0.1 mg/mL spherical actin monomers were prepared. The Arp2/3 complex, the VCA domain protein, and Compound 12, 38, or 59 (10 μM each) according to the present invention were added to the spherical actin monomers and an actin polymerization buffer and reacted at room temperature for 1 hour. The increased fluorescence intensity during the reaction from the spherical actin monomer to a fibrous actin polymer was measured using a microplate reader at an excitation wavelength of 360 nm and an emission wavelength of 407 nm. The degree of actin polymerization was shown relative to the maximum polymerization rate (arbitrary units).
# α-SMA [1] = experiment: α-SMA protein level by Western blotting in TGF-β1-treated fibroblasts; format: cell-based; settings: MRC5 cells, 5, 10, or 20 μM, TGF-β1 (10 ng/mL), 70 hours
# Source text: as §1, §2
# α-SMA [2] = experiment: α-SMA expression inhibitory ability in MRC5 cell line (Western blotting); format: cell-based; settings: TGF-β1 (10 ng/mL), 72 hours, relative to TGF-β1 only
# How it was run: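 MRC5 cells given compound at 10 μM, then TGF-β1 (10 ng/mL) 2 h later; after 72 h, lysates probed for α-SMA by Western blot. Inhibition is α-SMA level relative to TGF-β1 alone, binned A ≥70%, B 50–<70%, C <50%.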
compound,measurement,setting,value
"CC(C(=O)N1CCN(c2ccccc2)c2ccccc21)N1CCCC[C@H]1C (stereo partly drawn) [Compound 59, 2-((R)-2-methylpiperidin-1-yl)-1-(4-phenyl-3,4-dihydroquinoxaline-1(2H)-yl)propan-1-one phosphate]",fibronectin protein level,fibronectin,greatly decreased
same,phosphorylation of SMAD2 protein,"p-SMAD2; MRC5 cells, 5, 10, or 20 μM",decreased in a concentration-dependent manner
same,phosphorylation of SMAD2 protein compared to nintedanib,"p-SMAD2; MRC5 cells, compared to nintedanib (1 μM)",reduced to a greater extent
same,COL1A1 protein level,COL1A1,greatly decreased
same,COL4A1 protein level,COL4A1,greatly decreased
same,intracellular F-actin polymerization,MCR5 cell line,significantly reduced
same,actin polymerization activity (maximum polymerization rate),Arp2/3 complex,decreased compared to the control
same,α-SMA protein level,α-SMA [1],significantly decreased
same,inhibition at 10 µM,α-SMA [2],< 50%

# Reference: US20250002464A1, “NOVEL COMPOUND AND PHARMACEUTICAL COMPOSITION COMPRISING SAME” (SAPIENSBIO INC., priority 2021, published 2025)
